# US20110117168A1, “METHODS AND COMPOSITIONS FOR SOFT TISSUE REPAIR” (AFFINERGY, INC., priority 2009, published 2011)
# Ends that are not written are not given here.
# Assays:
# human ASCs = assay: Biotinylated peptide cell binding specificity by flow cytometry (Neutravidin-PE); type: cell-based; conditions: 25 μM peptide solution, 30 min at 4° C.
# Description: (§1) The synthetic biotinylated cell binding peptide SEQ ID NO: 4 was examined for its ability to specifically bind MSCs compared to a number of other cells types including adipose-derived mesenchymal stem cells (ASCs), dermal fibroblasts, rodent MSCs, red blood cells, monocytes, lymphocytes and granulocytes. The cell binding peptide was biotinylated as described herein at Example 2. Cultured cells of each type were either purchased (ASCs and dermal fibroblasts) or isolated from rodent bone marrow (rodent MSCs) or human blood. Cells were first harvested and resuspended at 10^6/mL in PBS+2% fetal bovine serum (FBS). An aliquot of cells (50 μL) was incubated in 50 μL of peptide solution (25 μM in PBS+FBS) for 30 min at 4° C. Cells were then washed twice in PBS+FBS with 300×g centrifugation for 5 min between washes. Fluorescently-tagged neutravidin (Neutravidin-PE from INVITROGEN) was then added to the cells to label biotinylated peptide bound to cells. Neutravidin-PE was diluted 1:250 from stock and applied at 50 μL to cells. Cells were then washed in PBS+FBS, and acquired on a BD […]. Peptide reactivity was then measured as percent positivity relative to Neutravidin-PE staining without the addition of biotinylated peptide.
# human MSCs [1] = assay: as above; type: cell-based; conditions: 25 μM peptide solution, 30 min at 4° C.
# Description: as §1
# human MSCs [2] = assay: Capture of cultured MSCs with peptide on […] Streptavidin microbeads in LS columns; type: cell-based; conditions: 160,000 cultured human MSCs, peptide 20 μM on Streptavidin microbeads, LS column
# Experimental: In this experiment the ability of the biotinylated cell binding peptide SEQ ID NO: 4 to capture human MSCs from a homogeneous cultured cell population was examined. The cell binding peptide SEQ ID NO: 4 was biotinylated as described herein at Example 2. The cell binding peptide SEQ ID NO: 4, and a non-binding control peptide, were added to separate 300 μl volumes of […] BIOTEC Streptavidin microbeads at a concentration of 20 μM. These beads are made from iron filings, coated with a dextran coating which is functionalized with streptavidin moieties. Peptide was incubated with beads for 45 min on ice. The 300 μl of peptide coated microbeads were added to pre-equilibrated LS columns outside of the magnetic field to evenly distribute the magnetic beads throughout the columns. Columns were then placed into a magnetic field, and excess peptide was washed away with buffer while retaining the peptide coated microbeads. Cultured and expanded human MSCs from bone marrow aspirate (160,000 cells; LONZA) were added to each LS column and allowed to pass through by gravity flow. Flowthrough was collected and cycled through the columns 5 times, after which the columns were washed with 5 ml buffer. […] The collected flowthrough with 5 ml wash and eluted cells were spun down, resuspended in a smaller volume, and counted by hemacytometer (see FIG. 17). […]
# HUVECs = assay: Endothelial cell phenotype and anti-thrombogenic protein expression on peptide-modified collagen; type: cell-based, human; conditions: HUVECs cultured 24 hours; t-PA and 6-keto Prostaglandin F1a ELISA, flow cytometry
# Experimental: Once immobilized on a vascular graft, endothelial cells must retain their characteristic properties of promoting endothelialization. Therefore, the phenotype, viability, and anti-thrombogenic protein expression profiles were evaluated for endothelial cells in the presence of collagen modified with the endothelial cell binding peptide SEQ ID NO: 4 (generated according to Example 7 using BS^3 reagent). […] Specifically, HUVECs were plated on SEQ ID NO: 4 peptide-modified collagen, collagen with 10 μM free SEQ ID NO: 4 peptide or collagen alone for 24 hours. Flow cytometry was performed using a BD […], and ELISAs were performed according to manufacturers instructions. (FIGS. 22A & 22B). Tissue-type Plasminogen Activator (t-PA) and 6-keto Prostaglandin F1a protein expression levels secreted in this assay are aligned with other reports on cultured HUVECS (Kimura and Yokoi-Hayashi, Biochim Biophys Acta, 1996, 1310:1-4; Merhi-Soussi et al., J Leukoc Biol, 2000, 68:881-9).
# MSCs [3] = assay: Adipocyte differentiation of peptide-captured MSCs (Oil Red O); type: cell-based, human; conditions: 21 days in adipocyte differentiation medium
# Experimental: Adipocyte differentiation. After capture of MSCs using cell binding peptide SEQ ID NO: 4 with the […] magnetic system according to Example 6, the ability of the captured cells to differentiate into an adipocyte lineage was examined. The MSCs present in the […] column eluants (see Example 6) were cultured for 21 days in complete medium (DMEM, 10% FBS, 100 units/mL penicillin, 100 μg/mL streptomycin, and 2 mM glutamine) supplemented with 0.5 mM isobutyl methylxanthine, 1 μM dexamethasone, 10 μM insulin, 200 μM indomethacin, and 1% antibiotic/antimycotic. Following the 21 day incubation, the cells were fixed in 4% paraformaldehyde in PBS for 15 minutes, washed in 60% isopropanol for 5 minutes, and stained with Oil Red 0 (SIGMA) for 10 minutes to determine the extent of adipogenesis (see FIG. 26, panels A (undifferentiated MSCs) and panel B (adipocyte differentiated MSCs)). The image of the adipose differentiated cells (FIG. 26, panel B) contains a larger magnification inset where the lipid vacuoles are clearly visible.
# MSCs [4] = assay: Chondrocyte differentiation of peptide-captured MSCs (aggrecan immunostaining); type: cell-based, human; conditions: 24 days in CHONDRODIFF medium
# Experimental: Chondrocyte differentiation. To examine chondrocyte differentiation, the MSCs present in the […] column eluants (see Example 6) were pelleted by centrifugation at 150×g for 5 minutes. Cells were washed once with 1 ml MACS NH CHONDRODIFF Medium without disturbing the pellet. Cells were spun again and 1 mL CHONDRODIFF Medium was added to each pellet. Every third day, medium was aspirated and replaced with fresh pre-warmed medium. After 24 days in culture, cells exposed to CHONDRODIFF medium formed cartilage plugs or nodules, whereas control cells formed only loose or small nodules. Cells were washed once with PBS and fixed in neutral buffered formalin overnight. Sections were embedded in paraffin and sectioned at 5 microns. Sections were examined by hemotoxylin and eosin staining (data not shown). Sections were further examined by immunostaining for aggrecan, a major structural component of cartilage. In FIG. 27, sections from the periphery (panels A and B) or center (panels C and D) were incubated with an antibody against aggrecan (ABCAM) (panels B and D) or with secondary detection reagents only as a control (panels A and C), then counterstained with DAPI to reveal cell nuclei. […] Control images of captured cells grown in the absence of differentiation medium could not be taken due to the small and loose nature of nodules.
sequence,measurement,setting,value
"SSFWDVCQGDGTCYGGGSR (SSFWDVCQGDGTCYGGGSRGSSG-{K(biotin)}; cysteine pairing not given here) [SEQ ID NO: 4, tested biotinylated with GSSGK(biotin) or other spacer at the C-terminus]",binding to human ASCs (percent positivity relative to Neutravidin-PE staining),human ASCs,high binding
same,binding to human MSCs (percent positivity relative to Neutravidin-PE staining),human MSCs [1],high binding
same,capture of MSCs,human MSCs [2],approximately 70%
same,endothelial cell phenotype and anti-thrombogenic protein secretion,HUVECs,maintained their endothelial cell phenotype and their ability to secrete anti-thrombogenic proteins
same,adipocyte differentiation of captured MSCs,MSCs [3],adipogenesis pathway remains intact
same,chondrocyte differentiation of captured MSCs (aggrecan),MSCs [4],aggrecan could be detected
